Data as given in patent US20220031871A1, “ANTIBODIES FOR CHELATED RADIONUCLIDES AND CLEARING AGENTS” (Hoffmann-La Roche Inc., priority 2018, published 2022).

Key:
[1] = test system: s.c. BxPC3 tumors; test: Protocol 146: ^212Pb-DOTAM distribution after PRIT, 5 min to 48 h; assay type: in vivo, SCID mice
Description: Protocol 146 was designed to provide in vivo ^212Pb-DOTAM distribution data after PRIT for estimations of the absorbed radioactive dose to tumor and normal tissues, in SCID mice carrying s.c. BxPC3 tumors. The quenching of ^212Pb-DOTAM was performed using Ca (see example 34).
Pretargeting was performed by injection of CEA-DOTAM BsAb, followed 7 days later by the CA. After 24 hours, the ^212Pb-DOTAM was administered. Groups of mice were sacrificed at multiple time points from 5 minutes to 48 hours after the radioactive injection, and blood and organs harvested for radioactive measurement. […] Absorbed doses were finally calculated through established methods using the resulting time-activity curves. […]
Mice in group E and F were individually housed (i.e. one mouse per cage) in grilled-floor metabolic cages. Urine and feces were collected from each cage 2, 6, and 24 hours after the radioactive injection, and the individual samples subsequently measured for radioactivity. […]
Blood/serum was collected from all mice through retro-orbital bleeding before termination. After euthanasia, the following additional organs and tissues were harvested for radioactivity measurement and calculation of % ID/g: bladder, uterus, small intestine, colon, spleen, pancreas, kidneys, stomach, liver, lung, heart, brain, femoral bone, skin, muscle, abdominal fat, tail, and tumor.

[2] = test system: s.c. WSU-DLCL2 tumors; test: Protocol 162: CD20-PRIT and 1-step RIT efficacy and biodistribution; assay type: in vivo, SCID mice; settings: multiple injections of 20 μCi (PRIT)
Description: The aim of this study was to show proof-of-concept of the treatment regimen developed for CEA-PRIT directed against an alternative target: cluster of differentiation 20 (CD20). The therapeutic efficacy was evaluated after 3 cycles of CD20-PRIT in mice bearing subcutaneous WSU-DLCL2 tumors. Comparisons were also made with: 1-step CD20-RIT, using BsAbs that were pre-incubated with ^212Pb-DOTAM before injection; with rituximab, a type I monoclonal antibody directed against CD20 and a reference in treatment of CD20+ diseases; and with GA101, a type II monoclonal antibody also directed against CD20.
Animals were treated according to the experimental schedule illustrated in FIG. 59. Solid WSU-DLCL2 xenografts were established in SCID mice aged 8 weeks on study day 0 by subcutaneous injection of 1.5×10^5 cells into the right flank. […]
Mice in groups H, I, and L were sacrificed and necropsied for biodistribution purposes 24 hours after their first and only injection of ^212Pb-DOTAM or ^212Pb-DOTAM-BsAb; groups J and K were sacrificed and necropsied 24 hours after their second and third ^212Pb-DOTAM injection, respectively. […] Collected samples were weighed and then measured for radioactivity using a 2470 WIZARD^2 automatic gamma counter (PerkinElmer), and the percent injected dose per gram of tissue (% ID/g) subsequently calculated, including corrections for decay and background. […]

NC(=O)CN1CCN(CC(N)=O)CCN(CC(N)=O)CCN(CC(N)=O)CC1.[212Pb+2] [^212Pb-DOTAM]
accumulation of radioactivity in tumor ([1]; 5 minutes after injection, pretargeted by CEA-DOTAM BsAb, CA): 17 % ID/g
accumulation of radioactivity in tumor ([1]; by 6 hours p.i., remaining for at least 48 hours): over 40%
tolerability (BW development) [2]: well tolerated
